Experimental data reported in patent US12377112B2, “Methods of treating neurocognitive disorders, chronic pain and reducing inflammation” (priority 2019, dated 2025).

Test system: healthy subjects
Experiment: Phase 1 study: Positive and Negative Affect Schedule (PANAS)
Assay type: in vivo, human
Conditions: for PANAS-Negative, change from baseline, LS mean / PANAS-Positive, change from baseline, LS mean: Post-Treatment Day 0
Excerpt: In some embodiments, the Positive and Negative Affect Schedule (PANAS) is used to evaluate the safety and/or efficacy of psilocybin. The PANAS measures the acute emotional drug effects and comprises 2 mood scales that measure positive and negative affect. Positive affect refers to the propensity to experience positive emotions and interact with others positively. Negative affect involves experiencing the world in a more negative way. Subjects respond to 10 questions associated with negative affect and 10 questions associated with positive affect. The questions are scaled using a 5-point scale that ranges from “slightly or not at all (1)” to “extremely (5)”. A total higher score on the positive affect questions indicates more of a positive effect while a lower score on the negative affect questions indicates less of a negative affect. In some embodiments, after treating according to the methods of the disclosure, a subject experiences a decrease in negative affect score of the PANAS, between about 5% and about 100%, for example about 5%, about 10%, about 15%, about 20%, about 25%, about 30%, about 35%, about 40%, about 45%, about 50%, about 55%, about 60%, about 65%, about 70%, about 75%, about 80%, about 85%, about 90%, about 95%, or about 100%, compared to prior to treatment. In some embodiments, after treating according to the methods of the disclosure, a subject experiences an increase in positive affect score of the PANAS, between about 5% and about 100%, for example about 5%, about 10%, about 15%, about 20%, about 25%, about 30%, about 35%, about 40%, about 45%, about 50%, about 55%, about 60%, about 65%, about 70%, about 75%, about 80%, about 85%, about 90%, about 95%, or about 100%, about 110%, about 120%, about 130%, about 140%, about 150%, about 160%, about 170%, about 180%, about 190%, about 200%, about 210%, about 220%, about 230%, about 240%, about 250%, about 260%, about 270%, about 280%, about 290%, or about 300%, or more, compared to prior to treatment.
The effects of psilocybin usually started about 20 to 30 min after administration, becoming most intense in the first 90 to 120 min and gradually subsiding in about 5 to 6 hours. The subjects were asked to remain in the room for the duration of the session regardless of the intensity of the effects, preferably lying down and mostly silent unless they have a concern or need to communicate a discomfort or seek reassurance from the therapist, or use the restroom. A light meal and fruit were available for the subject after the session. After the acute effects of study drug administration had subsided, all subjects were assessed for safety and asked to complete the following assessments: PANAS and 5D-ASC. Medications used, if any, during the study drug administration session, and adverse events were recorded. The subjects also discussed their psilocybin experience with their therapist. The subject was discharged 6 to 8 hours post dose when, in the opinion of the investigator, the acute effects of psilocybin were resolved. After the acute effects of study drug administration subsided, subjects returned home accompanied by a family member, friend, or chaperone. The therapists checked with the subjects by phone at the end of the day to ensure that the subject arrived home safely.
The Positive and Negative Affects Schedule (PANAS) score was also evaluated to measure the effect of psilocybin.

## CN(C)CCc1c[nH]c2cccc(OP(=O)(O)O)c12 [Psilocybin, psilocybin]
25 mg, baseline to day of dosing
  PANAS negative affect, mean increase: 1.3
Psilocybin 10 mg
  PANAS-Negative, change from baseline, LS mean: −0.6
  PANAS-Positive, change from baseline, LS mean: 0.7
Psilocybin 25 mg
  PANAS-Negative, change from baseline, LS mean: 1.3
  PANAS-Positive, change from baseline, LS mean: −0.4
